Data on 36 molecules can be found in patent US9382245B2, “Compounds and methods for treating HIV infections” (priority 2013, dated 2016).

Where only a bound is given, the exact number is not on record here.

System in one data set: not listed separately
In words: in vitro. Particulars: human.
In turn, `O=c1ccn(CCOc2ccccc2Oc2cccc3[nH]ccc23)c(=O)[nH]1` [8a, 1-(2-(2-((1H-indol-4-yl)oxy)phenoxy)ethyl)pyrimidine-2,4(1H,3H)-dione] had a CC50 of 53 µM.

The molecule `O=c1ccn(CCOc2cc(Cl)ccc2Oc2cccc3[nH]ccc23)c(=O)[nH]1` [8b, 1-(2-(2-((1H-indol-4-yl)oxy)-5-chlorophenoxy)ethyl)pyrimidine-2,4(1H,3H)-dione] came in with a CC50 of 18 µM.

In turn, `Cc1cc2c(Oc3ccccc3OCCn3ccc(=O)[nH]c3=O)cccc2[nH]1` [8c, 1-(2-(2-((2-methyl-1H-indol-4-yl)oxy)phenoxy)ethyl)pyrimidine-2,4(1H,3H)-dione] came in with a CC50 of 15 µM.

The molecule `N#Cc1cc2c(Oc3ccccc3OCCn3ccc(=O)[nH]c3=O)cccc2[nH]1` [8d, 4-(2-(2-(2,4-dioxo-3,4-dihydropyrimidin-1(2H)-yl)ethoxy)phenoxy)-1H-indole-2-carbonitrile] registered a CC50 of 72 µM.

`Cc1cc(Oc2ccccc2OCCn2ccc(=O)[nH]c2=O)c2cc(C#N)[nH]c2c1` [8e, 4-(2-(2-(2,4-dioxo-3,4-dihydropyrimidin-1(2H)-yl)ethoxy)phenoxy)-6-methyl-1H-indole-2-carbonitrile] registered a CC50 of 1.2 µM.

With `N#Cc1cc2c(Oc3ccccc3OCCn3ccc(=O)[nH]c3=O)cc(Cl)cc2[nH]1` [8f, 6-chloro-4-(2-(2-(2,4-dioxo-3,4-dihydropyrimidin-1(2H)-yl)ethoxy)phenoxy)-1H-indole-2-carbonitrile], the CC50 was found to be 81 µM.

On to `Cc1cc2c(Oc3ccccc3OCCn3ccc(=O)[nH]c3=O)cccn2c1` [10a, 1-(2-(2-((2-methylindolizin-8-yl)oxy)phenoxy)ethyl)pyrimidine-2,4(1H,3H)-dione], for which the CC50 turned out to be 9 µM.

In turn, `N#Cc1cc2c(Oc3ccccc3OCCn3ccc(=O)[nH]c3=O)cccn2c1` [10b, 8-(2-(2-(2,4-dioxo-3,4-dihydropyrimidin-1(2H)-yl)ethoxy)phenoxy)indolizine-2-carbonitrile] returned a CC50 of more than 100 µM.

In turn, `Cc1cc(Oc2ccccc2OCCn2ccc(=O)[nH]c2=O)c2cc(C#N)cn2c1` [10c, 8-(2-(2-(2,4-dioxo-3,4-dihydropyrimidin-1(2H)-yl)ethoxy)phenoxy)-6-methylindolizine-2-carbonitrile] came in with a CC50 of 3 µM.

For the molecule `N#Cc1cc2c(Oc3cc(F)ccc3OCCn3ccc(=O)[nH]c3=O)cccn2c1` [10j, 8-(2-(2-(2,4-dioxo-3,4-dihydropyrimidin-1(2H)-yl)ethoxy)-5-fluorophenoxy)indolizine-2-carbonitrile], the CC50 is 35 µM.

`N#Cc1cc2c(Oc3cc(F)c(F)cc3OCCn3ccc(=O)[nH]c3=O)cccn2c1` [10k, 8-(2-(2-(2,4-dioxo-3,4-dihydropyrimidin-1(2H)-yl)ethoxy)-4,5-difluorophenoxy)indolizine-2-carbonitrile] yielded a CC50 of 19 µM.

Molecule `N#Cc1cc2c(Oc3cc(F)c(F)cc3OCCn3ccc(=O)[nH]c3=O)cc(F)cn2c1` [10l, 8-(2-(2-(2,4-dioxo-3,4-dihydropyrimidin-1(2H)-yl)ethoxy)-4,5-difluorophenoxy)-6-fluoroindolizine-2-carbonitrile] registered a CC50 of 54 µM.

In turn, `N#Cc1cc2c(Oc3ccc(Cl)cc3OCCn3ccc(=O)[nH]c3=O)cccn2c1` [10m, 8-(4-chloro-2-(2-(2,4-dioxo-3,4-dihydropyrimidin-1(2H)-yl)ethoxy)phenoxy)indolizine-2-carbonitrile] displayed a CC50 of 55 µM.

`N#Cc1cc2c(Oc3ccc(Cl)cc3OCCn3ccc(=O)[nH]c3=O)cc(Cl)cn2c1` [10n, 6-chloro-8-(4-chloro-2-(2-(2,4-dioxo-3,4-dihydropyrimidin-1(2H)-yl)ethoxy)phenoxy)indolizine-2-carbonitrile] showed a CC50 of 20 µM.

`N#Cc1cc2c(Oc3ccccc3OCCn3ccc(=O)[nH]c3=O)cccc2o1` [12a, 4-(2-(2-(2,4-dioxo-3,4-dihydropyrimidin-1(2H)-yl)ethoxy)phenoxy)benzofuran-2-carbonitrile] had a CC50 of more than 100 µM.

Consider `Cc1cc(Oc2ccccc2OCCn2ccc(=O)[nH]c2=O)c2cc(C#N)oc2c1` [12b, 4-(2-(2-(2,4-dioxo-3,4-dihydropyrimidin-1(2H)-yl)ethoxy)phenoxy)-6-methylbenzofuran-2-carbonitrile], for which the CC50 was more than 100 µM.

As for `N#Cc1cc2c(Oc3ccccc3OCCn3ccc(=O)[nH]c3=O)cc(Cl)cc2o1` [12c, 6-chloro-4-(2-(2-(2,4-dioxo-3,4-dihydropyrimidin-1(2H)-yl)ethoxy)phenoxy)benzofuran-2-carbonitrile], the CC50 was more than 100 µM.

The molecule `N#Cc1cc2c(Oc3ccc(F)cc3OCCn3ccc(=O)[nH]c3=O)cccc2o1` [12d, 4-(2-(2-(2,4-dioxo-3,4-dihydropyrimidin-1(2H)-yl)ethoxy)-4-fluorophenoxy)benzofuran-2-carbonitrile] came in with a CC50 of more than 100 µM.

In the case of `Cc1cc(Oc2ccc(F)cc2OCCn2ccc(=O)[nH]c2=O)c2cc(C#N)oc2c1` [12e, 4-(2-(2-(2,4-dioxo-3,4-dihydropyrimidin-1(2H)-yl)ethoxy)-4-fluorophenoxy)-6-methylbenzofuran-2-carbonitrile], the CC50 was more than 100 µM.

Molecule `O=c1ccn(CCOc2cc(Cl)ccc2Oc2cccc3occc23)c(=O)[nH]1` [12f, 1-(2-(2-(benzofuran-4-yloxy)-5-chlorophenoxy)ethyl)pyrimidine-2,4(1H,3H)-dione] displayed a CC50 of 19 µM.

Molecule `Cc1cc2c(Oc3ccc(Cl)cc3OCCn3ccc(=O)[nH]c3=O)cccc2o1` [12g, 1-(2-(5-chloro-2-((2-methylbenzofuran-4-yl)oxy)phenoxy)ethyl)pyrimidine-2,4(1H,3H)-dione] registered a CC50 of 8 µM.

`N#Cc1cc2c(Oc3ccc(Cl)cc3OCCn3ccc(=O)[nH]c3=O)cccc2o1` [12h, 4-(4-chloro-2-(2-(2,4-dioxo-3,4-dihydropyrimidin-1(2H)-yl)ethoxy)phenoxy)benzofuran-2-carbonitrile] displayed a CC50 of 7 µM.

The molecule `O=c1ccn(CCOc2cc(Cl)ccc2Oc2cccc3ccoc23)c(=O)[nH]1` [13a, 1-(2-(2-(benzofuran-7-yloxy)-5-chlorophenoxy)ethyl)pyrimidine-2,4(1H,3H)-dione] had a CC50 of 50 µM.

On to `N#Cc1ccc2c(Oc3ccc(F)cc3OCCn3ccc(=O)[nH]c3=O)cccc2c1` [14i, 5-(2-(2-(2,4-dioxo-3,4-dihydropyrimidin-1(2H)-yl)ethoxy)-4-fluorophenoxy)-2-naphthonitrile], for which the CC50 is more than 100 µM.

With `N#Cc1ccc2c(Oc3ccccc3OCCn3ccc(=O)[nH]c3=O)cc(F)cc2c1` [14k, 5-(2-(2-(2,4-dioxo-3,4-dihydropyrimidin-1(2H)-yl)ethoxy)phenoxy)-7-fluoro-2-naphthonitrile], the CC50 is more than 100 µM.

As for `N#Cc1ccc2c(Oc3ccc(F)cc3OCCn3ccc(=O)[nH]c3=O)cc(F)cc2c1` [14l, 5-(2-(2-(2,4-dioxo-3,4-dihydropyrimidin-1(2H)-yl)ethoxy)-4-fluorophenoxy)-7-fluoro-2-naphthonitrile], the CC50 is more than 100 µM.

The next data set concerns human MT-2 T-cells.
Assay: not given
The conditions noted are these: human.
Molecule `N#Cc1cc2c(Oc3ccccc3OCCn3ccc(=O)[nH]c3=O)cccn2c1` [10b, 8-(2-(2-(2,4-dioxo-3,4-dihydropyrimidin-1(2H)-yl)ethoxy)phenoxy)indolizine-2-carbonitrile] came in with a CC50 of more than 100 µM.

Molecule `N#Cc1cc2c(Oc3ccccc3OCCn3ccc(=O)[nH]c3=O)cc(F)cn2c1` [10d, 8-(2-(2-(2,4-dioxo-3,4-dihydropyrimidin-1(2H)-yl)ethoxy)phenoxy)-6-fluoroindolizine-2-carbonitrile] registered a CC50 of 40 µM.

On to `N#Cc1cc2c(Oc3ccc(F)cc3OCCn3ccc(=O)[nH]c3=O)cc(Cl)cn2c1` [10i, 6-chloro-8-(2-(2-(2,4-dioxo-3,4-dihydropyrimidin-1(2H)-yl)ethoxy)-4-fluorophenoxy)indolizine-2-carbonitrile], for which the CC50 came to 15 µM.

Regarding `N#Cc1cc2c(Oc3ccccc3OCCn3ccc(=O)[nH]c3=O)cccc2o1` [12a, 4-(2-(2-(2,4-dioxo-3,4-dihydropyrimidin-1(2H)-yl)ethoxy)phenoxy)benzofuran-2-carbonitrile], the CC50 is more than 100 µM.

Molecule `N#Cc1cc2c(Oc3ccccc3OCCn3ccc(=O)[nH]c3=O)cc(Cl)cc2o1` [12c, 6-chloro-4-(2-(2-(2,4-dioxo-3,4-dihydropyrimidin-1(2H)-yl)ethoxy)phenoxy)benzofuran-2-carbonitrile] returned a CC50 of more than 100 µM.

With `N#Cc1cc2c(Oc3ccc(F)cc3OCCn3ccc(=O)[nH]c3=O)cccc2o1` [12d, 4-(2-(2-(2,4-dioxo-3,4-dihydropyrimidin-1(2H)-yl)ethoxy)-4-fluorophenoxy)benzofuran-2-carbonitrile], the CC50 is more than 100 µM.

Regarding `Cc1ccc2c(Oc3ccccc3OCCn3ccc(=O)[nH]c3=O)cccc2c1` [14b, 1-(2-(2-((6-methylnaphthalen-1-yl)oxy)phenoxy)ethyl)pyrimidine-2,4(1H,3H)-dione], the CC50 is 40 µM.

In the case of `O=c1ccn(CCOc2ccccc2Oc2cccc3cc(Cl)ccc23)c(=O)[nH]1` [14c, 1-(2-(2-((6-chloronaphthalen-1-yl)oxy)phenoxy)ethyl)pyrimidine-2,4(1H,3H)-dione], the CC50 was more than 100 µM.

As for `O=c1ccn(CCOc2ccccc2Oc2cc(Cl)cc3cc(Cl)ccc23)c(=O)[nH]1` [14d, 1-(2-(2-((3,6-dichloronaphthalen-1-yl)oxy)phenoxy)ethyl)pyrimidine-2,4(1H,3H)-dione], the CC50 was 45 µM.

Turning to `N#Cc1ccc2c(Oc3ccccc3OCCn3ccc(=O)[nH]c3=O)cc(Cl)cc2c1` [14f, 7-chloro-5-(2-(2-(2,4-dioxo-3,4-dihydropyrimidin-1(2H)-yl)ethoxy)phenoxy)-2-naphthonitrile], the CC50 stood at 24 µM.

`N#Cc1ccc2c(Oc3ccc(F)cc3OCCn3ccc(=O)[nH]c3=O)cc(Cl)cc2c1` [14g, 7-chloro-5-(2-(2-(2,4-dioxo-3,4-dihydropyrimidin-1(2H)-yl)ethoxy)-4-fluorophenoxy)-2-naphthonitrile] yielded a CC50 of 16 µM.

On to `N#Cc1ccc2c(Oc3ccc(Cl)cc3OCCn3ccc(=O)[nH]c3=O)cc(Cl)cc2c1` [14h, 7-chloro-5-(4-chloro-2-(2-(2,4-dioxo-3,4-dihydropyrimidin-1(2H)-yl)ethoxy)phenoxy)-2-naphthonitrile], for which the CC50 was determined as 20 µM.

Turning to `N#Cc1ccc2c(Oc3ccc(F)cc3OCCn3ccc(=O)[nH]c3=O)cccc2c1` [14i, 5-(2-(2-(2,4-dioxo-3,4-dihydropyrimidin-1(2H)-yl)ethoxy)-4-fluorophenoxy)-2-naphthonitrile], the CC50 is more than 100 µM.

`N#Cc1ccc2c(Oc3ccc(Cl)cc3OCCn3ccc(=O)[nH]c3=O)cccc2c1` [14j, 5-(4-chloro-2-(2-(2,4-dioxo-3,4-dihydropyrimidin-1(2H)-yl)ethoxy)phenoxy)-2-naphthonitrile] yielded a CC50 of more than 100 µM.

In the case of `N#Cc1ccc2c(Oc3ccccc3OCCn3ccc(=O)[nH]c3=O)cc(F)cc2c1` [14k, 5-(2-(2-(2,4-dioxo-3,4-dihydropyrimidin-1(2H)-yl)ethoxy)phenoxy)-7-fluoro-2-naphthonitrile], the CC50 is more than 100 µM.

The molecule `N#Cc1ccc2c(Oc3ccc(F)cc3OCCn3ccc(=O)[nH]c3=O)cc(F)cc2c1` [14l, 5-(2-(2-(2,4-dioxo-3,4-dihydropyrimidin-1(2H)-yl)ethoxy)-4-fluorophenoxy)-7-fluoro-2-naphthonitrile] had a CC50 of more than 100 µM.

The molecule `N#Cc1ccc2c(Oc3ccc(Cl)cc3OCCn3ccc(=O)[nH]c3=O)cc(F)cc2c1` [14m, 5-(4-chloro-2-(2-(2,4-dioxo-3,4-dihydropyrimidin-1(2H)-yl)ethoxy)phenoxy)-7-fluoro-2-naphthonitrile] showed a CC50 of 18 µM.
